Reference: patent publication US12303845B2, “Method for crystallization of active pharmaceutical ingredients” (Nanoform Finland Oyj, priority 2023, dated 2025)
One block for each compound: values may come before it.

What was measured:
Type in all cases: physicochemical
[1] = Crystallization of amorphous nanosized API in aqueous polymer solution, polymorph/crystallinity by XRD
Protocol: XRPD measurements were carried out using the Malvern PANalytical Empyrean X-ray diffractometer equipped with a Cu Kα (1.54 Å) source, MultiCore optics and a solid-state PIXcel3D detector. By using Kapton tape the samples were attached onto aluminum or polycrystalline silicon sample holders. Dried slurries were measured without further sample preparation under Kapton tape and suspensions were filtered, dried, and filters were attached with double sided tape. The samples were measured in the reflection geometry in a spinning measurement stage. The measurement range was 5-40 (°2θ). The step size and time per step values were varied depending on the counts per second obtained.
Determination of crystallization of API nanoparticles was evaluated via kinetic study of suspension. Accordingly, XRD measurement was done for suspension in different time points.
Amorphous API nanoparticles (budesonide, ezetimibe, ceritinib, and apalutamide) were added as dry powders to aqueous polymer solutions. The mixtures were either • (i) mixed with a magnetic stirrer and ultrasonicated until API was completely surrounded by water (wetted). The stirring was continued for 16-24 h at ambient temperature or • (ii) blended with a metal spatula and allowed to stay at room temperature for 18-24 h.
The suspensions formed were analyzed after 18-24 h. SEM and XRD samples were prepared as described above.

[2] = SEM of crystallized suspensions and dried products (crystal size grade, particle size); design: key: 5 = nanocrystals; 1 = large crystals
Protocol: SEM images were captured using the Zeiss Sigma 300 VP SEM instruments. Samples were dispersed into water and filtered with 0.1 μm filter. Filters were dried, transferred to SEM sample holders, and coated with a 5 nm thick layer of platinum. Amorphous API nanoparticles (budesonide, ezetimibe, ceritinib, and apalutamide) were added as dry powders to aqueous polymer solutions. The mixtures were either • (i) mixed with a magnetic stirrer and ultrasonicated until API was completely surrounded by water (wetted). The stirring was continued for 16-24 h at ambient temperature or • (ii) blended with a metal spatula and allowed to stay at room temperature for 18-24 h. The suspensions formed were analyzed after 18-24 h. SEM and XRD samples were prepared as described above. Suspension comprising nanosized APIs prepared as shown above were dried in a vacuum desiccator overnight. The solid materials were grounded to produce powders. The powders were analyzed on XRD and SEM. The powders comprising nanosized APIs were used in the stability, permeability, and dissolution tests as described above.

[3] = Stability tests of solid material (SEM, XRD, HPLC); settings: nanosized ceritinib composition, fresh vs stored at room temperature for one month
Protocol: Solid material was weighted in separate vials (approx. 150 mg of material in each) and transferred to stability chambers. Three conditions were applied: ambient conditions (material in closed vial at RT), 25° C./65% RH and 40° C./75% RH. Material was analyzed at T0 as freshly prepared, T7 ([…]), T14 ([…]) and T30 (30 d) after the initiation of stability studies. SEM, XRD and dissolution/permeability studies were used to evaluate the crystallinity, particle size/morphology and performance of the material.

[4] = HPMC 1 wt.-%, SLS 0.2 wt.-%, mAPI 25 mg/g
[5] = HPMC 1 wt.-%, no SLS, mAPI 25 mg/g
[6] = HPMC 2.5 wt.-%, SLS 0.2 wt.-%, mAPI 25 mg/g
[7] = HPMC 2.5 wt.-%, no SLS, mAPI 25 mg/g
[8] = HPMC 5 wt.-%, SLS 0.2 wt.-%, mAPI 100 mg/g
[9] = HPMC 5 wt.-%, SLS 0.2 wt.-%, mAPI 150 mg/g
[10] = HPMC 5 wt.-%, SLS 0.2 wt.-%, mAPI 200 mg/g
[11] = PVPVA 1 wt.-%, SLS 0.2 wt.-%, mAPI 25 mg/g
[12] = PVPVA 1 wt.-%, no SLS, mAPI 25 mg/g polymer solution
[13] = PVPVA 2.5 wt.-%, SLS 0.2 wt.-%, mAPI 25 mg/g
[14] = PVPVA 2.5 wt.-%, no SLS, mAPI 25 mg/g
[15] = PVPVA 5 wt.-%, SLS 0.2 wt.-%, mAPI 25 mg/g
[16] = PVPVA 5 wt.-%, no SLS, mAPI 25 mg/g
[17] = PVPVA 10 wt.-%, SLS 0.2 wt.-%, mAPI 25 mg/g
[18] = PVPVA 10 wt.-%, no SLS, mAPI 25 mg/g
[19] = PVPVA 20 wt.-%, no SLS, mAPI 200 mg/g
[20] = PVPVA 25 wt.-%, SLS 0.2 wt.-%, mAPI 500 mg/g
[21] = PVPVA 25 wt.-%, no SLS, mAPI 250 mg/g
[22] = PVPVA 25 wt.-%, no SLS, mAPI 500 mg/g
[23] = PVPVA 45 wt.-%, SLS 0.2 wt.-%, mAPI 450 mg/g
[24] = PVPVA 45 wt.-%, no SLS, mAPI 450 mg/g
[25] = Poloxamer 407 1 wt.-%, SLS 0.2 wt.-%, mAPI 25 mg/g
[26] = Poloxamer 407 1 wt.-%, no SLS, mAPI 25 mg/g
[27] = Poloxamer 407 2.5 wt.-%, SLS 0.2 wt.-%, mAPI 25 mg/g
[28] = Poloxamer 407 2.5 wt.-%, no SLS, mAPI 25 mg/g
[29] = Poloxamer 407 5 wt.-%, SLS 0.2 wt.-%, mAPI 25 mg/g
[30] = Poloxamer 407 5 wt.-%, no SLS, mAPI 25 mg/g
[31] = Poloxamer 407 15 wt.-%, SLS 0.2 wt.-%, mAPI 150 mg/g
[32] = Poloxamer 407 15 wt.-%, SLS 0.2 wt.-%, mAPI 300 mg/g
[33] = Poloxamer 407 15 wt.-%, SLS 0.2 wt.-%, mAPI 450 mg/g
[34] = Poloxamer 407 15 wt.-%, no SLS, mAPI 150 mg/g
[35] = Poloxamer 407 15 wt.-%, no SLS, mAPI 300 mg/g
[36] = Poloxamer 407 15 wt.-%, no SLS, mAPI 450 mg/g
[37] = Poloxamer 407 5 wt.-%, no SLS, mAPI 150 mg/g
[38] = Poloxamer 407 7.5 wt.-%, no SLS, mAPI 150 mg/g
[39] = Poloxamer 407 7.5 wt.-%, no SLS, mAPI 300 mg/g
[40] = Poloxamer 407 10 wt.-%, SLS 0.2 wt.-%, mAPI 25 mg/g
[41] = Poloxamer 407 10 wt.-%, no SLS, mAPI 25 mg/g

- Polymorph [1, 4]: new
- Polymorph [1, 5]: new
- Polymorph [1, 6]: new
- Polymorph [1, 7]: new
- Polymorph [1, 8]: new
- Polymorph [1, 9]: new
- Polymorph [1, 10]: new
- Polymorph ([1]; HPMC 5 wt.-%, SLS 0.2 wt.-%, mAPI 250 mg/g): new
- Polymorph ([1]; HPMC 5 wt.-%, SLS 0.2 wt.-%, mAPI 300 mg/g): new
- Polymorph ([1]; HPMC 5 wt.-%, no SLS, mAPI 100 mg/g): amorphous
- Polymorph [1, 11]: new
- Polymorph [1, 12]: new
- Polymorph [1, 13]: new
- Polymorph [1, 14]: new
- Polymorph [1, 15]: new
- Polymorph [1, 16]: new
- Polymorph [1, 17]: new
- Polymorph [1, 18]: new
- Polymorph ([1]; PVPVA 15 wt.-%, no SLS, mAPI 450 mg/g): amorphous
- Polymorph ([1]; PVPVA 15 wt.-%, no SLS, mAPI 600 mg/g): amorphous
- Polymorph [1, 19]: new
- Polymorph ([1]; PVPVA 20 wt.-%, no SLS, mAPI 600 mg/g): amorphous
- Polymorph [1, 20]: new
- Polymorph [1, 21]: new
- Polymorph [1, 22]: new
- Polymorph [1, 23]: new
- Polymorph [1, 24]: new
- Polymorph [1, 25]: Form B
- Polymorph [1, 26]: Form B
- Polymorph [1, 27]: Form B
- Polymorph [1, 28]: Form B
- Polymorph [1, 29]: Form B
- Polymorph [1, 30]: Form B
- Polymorph [1, 31]: Form B
- Polymorph [1, 32]: Form B
- Polymorph [1, 33]: Form B
- Polymorph [1, 34]: Form B
- Polymorph [1, 35]: Form B
- Polymorph [1, 36]: Form B
- Grade (SEM, visual inspection) [2, 4]: 5
- Grade (SEM, visual inspection) [2, 5]: 5
- Grade (SEM, visual inspection) [2, 6]: 5
- Grade (SEM, visual inspection) [2, 7]: 4
- Grade (SEM, visual inspection) [2, 8]: 5
- Grade (SEM, visual inspection) [2, 9]: 5
- Grade (SEM, visual inspection) [2, 10]: 5
- Grade (SEM, visual inspection) [2, 11]: 4
- Grade (SEM, visual inspection) [2, 12]: 4
- Grade (SEM, visual inspection) [2, 13]: 4
- Grade (SEM, visual inspection) [2, 14]: 4
- Grade (SEM, visual inspection) [2, 15]: 4
- Grade (SEM, visual inspection) [2, 16]: 4
- Grade (SEM, visual inspection) [2, 17]: 5
- Grade (SEM, visual inspection) [2, 18]: 4
- Grade (SEM, visual inspection) [2, 19]: 5
- Grade (SEM, visual inspection) [2, 20]: 5
- Grade (SEM, visual inspection) [2, 21]: 5
- Grade (SEM, visual inspection) [2, 22]: 5
- Grade (SEM, visual inspection) [2, 23]: 5
- Grade (SEM, visual inspection) [2, 24]: 5
- Grade (SEM, visual inspection) [2, 25]: 2
- Grade (SEM, visual inspection) [2, 26]: 2
- Grade (SEM, visual inspection) [2, 27]: 2
- Grade (SEM, visual inspection) [2, 28]: 2
- Grade (SEM, visual inspection) [2, 29]: 2
- Grade (SEM, visual inspection) [2, 30]: 2
- Grade (SEM, visual inspection) [2, 31]: 1
- Grade (SEM, visual inspection) [2, 32]: 1
- Grade (SEM, visual inspection) [2, 33]: 1
- Grade (SEM, visual inspection) [2, 34]: 1
- Grade (SEM, visual inspection) [2, 35]: 1
- Grade (SEM, visual inspection) [2, 36]: 1
Compound: CNC(=O)c1ccc(N2C(=S)N(c3cnc(C#N)c(C(F)(F)F)c3)C(=O)C23CCC3)cc1F [Apa, apalutamide]

- Polymorph [1, 7]: amorphous
- Polymorph [1, 11]: amorphous
- Polymorph [1, 13]: amorphous
- Polymorph [1, 14]: amorphous
- Polymorph [1, 15]: amorphous
- Polymorph [1, 17]: amorphous
- Polymorph [1, 25]: Form 1
- Polymorph [1, 26]: Form 1
- Polymorph [1, 27]: Form 1
- Polymorph [1, 28]: Form 1
- Polymorph [1, 29]: Form 1
- Polymorph [1, 30]: Form 1
- Polymorph [1, 37]: Form 1
- Polymorph [1, 38]: Form 1
- Polymorph [1, 39]: Form 1
- Polymorph [1, 40]: Form 1
- Polymorph [1, 41]: Form 1
- Polymorph [1, 31]: Form 1
- Polymorph [1, 32]: Form 1
- Polymorph [1, 34]: Form 1
- Polymorph [1, 35]: Form 1
- Polymorph [1, 36]: Form 1
- Grade (SEM, visual inspection) [2, 25]: 5
- Grade (SEM, visual inspection) [2, 26]: 5
- Grade (SEM, visual inspection) [2, 27]: 5
- Grade (SEM, visual inspection) [2, 28]: 5
- Grade (SEM, visual inspection) [2, 29]: 5
- Grade (SEM, visual inspection) [2, 30]: 5
- Grade (SEM, visual inspection) [2, 37]: 3
- Grade (SEM, visual inspection) [2, 38]: 3
- Grade (SEM, visual inspection) [2, 39]: 3
- Grade (SEM, visual inspection) [2, 40]: 5
- Grade (SEM, visual inspection) [2, 41]: 5
- Grade (SEM, visual inspection) [2, 31]: 5
- Grade (SEM, visual inspection) [2, 32]: 5
- Grade (SEM, visual inspection) [2, 34]: 5
- Grade (SEM, visual inspection) [2, 35]: 5
- Grade (SEM, visual inspection) [2, 36]: 5
- Stability of composition by SEM [3]: good stability
Compound: Cc1cc(Nc2ncc(Cl)c(Nc3ccccc3S(=O)(=O)C(C)C)n2)c(OC(C)C)cc1C1CCNCC1 [Cere, ceritinib]
